How the values were obtained:
KPC tumor = assay: Vaccination experiment with dying chemo-treated KPC cells; format: in vivo, mouse
Procedure: The vaccination schedule is highlighted in FIG. 2, panel C. Eight million KPC cells were seeded in a tissue culture dish. After cellular attachment, IRIN (300 µM or OX (500 µM were added for 24 h. Cells were collected and washed before resuspended in 0.8 mL cold PBS. For vaccination, each mouse received subcutaneous (SC) injection of a 100 µL suspension of chemo-treated cells in the right flank. Control animals received SC injection with 0.1 mL PBS. The vaccination was repeated after 7 days. Fourteen days after the 1st injection, the animals received SC injection of normal KPC cells (1 million cells in 0.1 mL PBS) in the contralateral (left) flank. Tumor growth was measured by a digital caliper every 2-3 days, and the tumor volume calculated according to the formula: length × width^2 /2. Animals were sacrificed on day 26 and the tumors were collected, weighed and fixed in 10% formalin, followed by paraffin embedding and sectioning to derive to 4 µm thick slices for IHC analysis. Primary antibodies to CD8 (#14-0808-82) and FoxP3 (#13-5773-82) were purchased from ThermoFisher. IHC staining was performed in the UCLA Translational Pathology Core Laboratory (TPCL). The slides were scanned and images assessed by using Aperio ImageScope software (Leica).

KPC cells [1] = assay: Autophagy (LC3B, p62) and PD-L1 expression by IF staining and immunoblotting; format: cell-based, mouse; details: IRIN 300 µM or OX 500 µM, 24 h
Procedure: KPC cells were seeded in the µ-Slide 8 well. After cell attachment, the cells were treated by IRIN at 300 µM for 24 h. Control treatments included exposure to PBS, chloroquine (32 µM), rapamycin (100 nM) and IFN-γ (10 ng/ml). Before IF staining, the cells were washed with PBS and fixed with 4% paraformaldehyde at RT for 15 minutes. Cells were treated in 1% BSA (blocking reagent) plus 0.2% triton-X100 in PBS for 30 minutes. Subsequently, the cells were incubated with primary antibody that recognizes LC3B (Cell Signaling #2775, 1:200) or p62/SQSTM1 (Cell Signaling #23214, 1:800) in 1% BSA containing PBS solution at 4° C. overnight. The sample was washed twice in PBS and further stained using an Alexa Fluor® 488 conjugated goat anti-rabbit secondary antibody (Thermo Fisher, A-11008, 1:1000) and 5 µg/mL Hoechst 33342 dye for 1 h. Cell surface staining for PD-L1 assessment was carried out in fixed (4% paraformaldehyde) cells, using a staining process similar to the above protocol. Primary PD-L1 antibody (Abcam, ab213480, 1: 500) and Alexa Fluor® 594 conjugated goat anti-rabbit secondary antibody (Thermo Fisher, A-11012, 1:1000) were used. The cells were visualized using a Leica SP8-MD confocal microscope under the 100x objective lens.
To confirm the confocal staining results for LC3B, p62 and PD-L1, western blotting experiments were performed in KPC cells exposed to IRIN (300 µM) or OX (500 µM) for 24 hr. Another experiment also looked at the dose-dependent effect of IRIN at concentrations of 75, 150, 300 and 600 µM for 24 h. Briefly, ~2×10^5 KPC cells per well were seeded in 6 well-plates. After drug exposure, KPC cells were harvested and treated with cold RIPA lysis buffer (Cell Signaling # 9806S), supplemented with a cocktail of protease and phosphatase inhibitors (Cell Signaling #5872) and incubated on ice for 30 mins. After centrifugation of the lysates at 12,000 rpm for 10 min, protein concentration was quantified by a Bradford assay (Biorad). Equal amounts of protein in the supernatants were loaded onto a 10-20% Tris-glycine SDS-PAGE gel (Invitrogen, Grand Island, NY). The proteins were subsequently transferred to a PVDF membrane. The membrane was blocked with 5% non-fat dry milk/TBST, before incubation with primary and HRP-conjugated secondary antibodies. The primary antibodies included: LC3B (Cell Signaling #2775), p62/SQSTM1 (Cell Signaling #5114), NF-κB p65 (Cell Signaling #8242), Phospho-NF-xB p65 (Cell Signaling #3033) and PD-L1 (Abcam, ab213480). The blots were developed by soaking in ECL substrate (Thermo Fisher Scientific). Densitometric analysis of each protein band on the film was quantified by ImageJ software and normalized to the intensity of a corresponding housekeeping protein.
(§1) The of the IRIN silicasome on lysosomal alkalization was performed at drug concentrations of 75 µM and 300 µM in KPC cells. Empty silicasomes (in which a 500 µg/mL particle dose is representative of an encapsulated IRIN dose of 300 µM) was included as control. The assessment of LC3B, p62 and PD-L1 immunoblotting and IF staining were performed in KPC cells during treatment with the IRIN silicasome or empty silicasomes, as described for the free drug.

PDAC = details: resected PDAC patients; p < 0.01; cited from earlier work
KPC cells [2] = assay: Lysosomal alkalization, LysoTracker Red DND 99 confocal microscopy; format: cell-based, mouse; details: CQ 32 µM, 24 h
Procedure: Approximately 1.5×10^4 KPC cells were seeded in µ-Slide 8 well (ibidi, 80826). To reveal the intracellular distribution of IRIN, attached KPC cells were treated with IRIN (300 µM) for 24 h. Cell membranes were stained using an Alexa Fluor® 594 conjugated WGA dye (Invitrogen™, W11262) at 2 µg/mL for 10 minutes. After washing, the cells were visualized using a Leica SP8-MD confocal microscope under the 100× objective lens. The excitation and emission wavelengths for IRIN were 405 nm and 440~490 nm, respectively^[51]
IRIN-treated KPC cells were washed and replenished with fresh media containing 100 nM DND-99 dye and 5 µg/mL Hoechst 33342 for nuclear staining. The cells were incubated at 37° C. for 0.5 h, followed by washing with phenol red free media. The cells were then visualized using a Leica SP8-MD confocal microscope under the 100× objective lens.
as §1

Molecule: O=C1[O][Pt]2([NH][C@@H]3CCCC[C@H]3[NH]2)[O]C1=O [oxaliplatin]
- growth of tumor on the opposite flank vs PBS control (KPC tumor; KPC cells treated with 300 µM IRIN or 500 µM OX, p <0.05): improved the shrinkage of the tumor on the opposite flank significantly
- CD8+ staining number (IHC) (KPC tumor; harvested tumors, day 26): slight increase
- CD8+/Treg cells ratio (IHC) (KPC tumor; harvested tumors, day 26): significantly (p <0.01) increased
- PD-L1 expression (KPC cells [1]): failed to upregulate PD-L1 expression
- autophagy flux (Western blotting of LC3 and p62) (KPC cells [1]): induced autophagy

Molecule: Nc1ccn([C@@H]2O[C@H](CO)[C@@H](O)C2(F)F)c(=O)n1 [GEM, gemcitabine]
- median overall survival (PDAC): 35.0 months

Molecule: chloroquine diphosphate salt
- alkalizing effect on lysosomal pH (KPC cells [2]): alkalizing effect of IRIN was duplicated

From patent US20230338363A1, “COMBINATION CHEMO-IMMUNOTHERAPY FOR PANCREATIC CANCER USING THE IMMUNOGENIC EFFECTS OF AN IRINOTECAN SILICASOME NANOCARRIER PLUS ANTI-PD-1” (The Regents of the University of California, priority 2020, published 2023)
